ChEMBL document CHEMBL1201862, “PubChem BioAssay data set” (2004)
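Protocol summary: plate cells (96-well), add compound at 5 concentrations, incubate 48 h, interpolate endpoints linearly. GI50 is the concentration that inhibits growth by half.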 The source made the active and inactive calls. No stated cut-off is given here; in the data, active = GI50 up to about 1.1 µM and inactive = higher.

Legend:
Experiment in all cases: NCI anticancer screen, dose series, 48 h
KM12 = tested on: KM12
U-251 = tested on: U-251
HOP-62 = tested on: HOP-62
MDA-N = tested on: MDA-N
SNB-19 = tested on: SNB-19
HOP-92 = tested on: HOP-92
CAKI-1 = tested on: CAKI-1
COLO 205 = tested on: COLO 205
NCI-H226 = tested on: NCI-H226
OVCAR-3 = tested on: OVCAR-3
IGROV-1 = tested on: IGROV-1
K562 = tested on: K562
A498 = tested on: A498
SK-MEL-5 = tested on: SK-MEL-5
DU-145 = tested on: DU-145
MDA-MB-231 = tested on: MDA-MB-231
RXF 393 = tested on: RXF 393
SR = tested on: SR
SF-295 = tested on: SF-295
PC-3 = tested on: PC-3

SMILES	GI50 (KM12)	GI50 (U-251)	GI50 (HOP-62)	GI50 (MDA-N)	GI50 (SNB-19)	GI50 (HOP-92)	GI50 (CAKI-1)	GI50 (COLO 205)	GI50 (NCI-H226)	GI50 (OVCAR-3)	GI50 (IGROV-1)	GI50 (K562)	GI50 (A498)	GI50 (SK-MEL-5)	GI50 (DU-145)	GI50 (MDA-MB-231)	GI50 (RXF 393)	GI50 (SR)	GI50 (SF-295)	GI50 (PC-3)
N#Cc1nc(-c2ccccn2)oc1N	> 100 µM (inactive)	> 100 µM (inactive)	> 100 µM (inactive)	> 100 µM (inactive)	> 100 µM (inactive)	> 100 µM (inactive)	> 100 µM (inactive)	> 100 µM (inactive)	> 100 µM (inactive)	> 100 µM (inactive)	> 100 µM (inactive)	> 100 µM (inactive)	> 100 µM (inactive)	> 100 µM (inactive)	> 100 µM (inactive)	> 100 µM (inactive)	> 100 µM (inactive)	> 100 µM (inactive)	> 100 µM (inactive)	> 100 µM (inactive)
Cc1cc(=O)oc2c(CN(CCCl)CCCl)c(O)ccc12	78.7 µM (inactive)	38.4 µM (inactive)	26.5 µM (inactive)	78.2 µM (inactive)	24.3 µM (inactive)	> 100 µM (inactive)	6.78 µM (inactive)	18 µM (inactive)	35.3 µM (inactive)	80.5 µM (inactive)	55.7 µM (inactive)	34.5 µM (inactive)	62.7 µM (inactive)	16.6 µM (inactive)	36.5 µM (inactive)	> 100 µM (inactive)	30.5 µM (inactive)	43.6 µM (inactive)	11.8 µM (inactive)	44 µM (inactive)
CC(C)(C)C(O)CC(O)(C(F)(F)F)C(F)(F)F (stereo not given)	> 100 µM (inactive)	> 100 µM (inactive)	> 100 µM (inactive)	> 100 µM (inactive)	> 100 µM (inactive)	> 100 µM (inactive)	> 100 µM (inactive)	> 100 µM (inactive)	> 100 µM (inactive)	> 100 µM (inactive)	> 100 µM (inactive)	> 100 µM (inactive)	> 100 µM (inactive)	> 100 µM (inactive)	> 100 µM (inactive)	> 100 µM (inactive)	> 100 µM (inactive)	> 100 µM (inactive)	> 100 µM (inactive)	> 100 µM (inactive)
CO[C@@H]1C=C[C@@]23c4cc5c(cc4C(O)N(CC2O)C3C1)OCO5 (stereo not given in full)	2.62 µM (inactive)	3.61 µM (inactive)	4.43 µM (inactive)	3.2 µM (inactive)	3.3 µM (inactive)	3.09 µM (inactive)	3.58 µM (inactive)	2.94 µM (inactive)	36.5 µM (inactive)	4.86 µM (inactive)	3.78 µM (inactive)	3.48 µM (inactive)	3.15 µM (inactive)	2.01 µM (inactive)	3.81 µM (inactive)	3.87 µM (inactive)	5.62 µM (inactive)	4 µM (inactive)	5.41 µM (inactive)	3.56 µM (inactive)
CCOC(=O)CCC(NC(=O)c1ccc(Oc2nc3c(N)cc(C(F)(F)F)cc3nc2-c2ccccc2)cc1)C(=O)OCC (stereo not given)	19.5 µM (inactive)	32.6 µM (inactive)	6.98 µM (inactive)	63.1 µM (inactive)	30.5 µM (inactive)	56.8 µM (inactive)	2.82 µM (inactive)	> 100 µM (inactive)	2.76 µM (inactive)	3.53 µM (inactive)	33.4 µM (inactive)	> 100 µM (inactive)	> 35.5 µM (inactive)	17.6 µM (inactive)	17.3 µM (inactive)	19 µM (inactive)	0.402 µM (active)	9.95 µM (inactive)	11 µM (inactive)	8.32 µM (inactive)
